Test results reported in patent publication US9649319B2, “Process for manufacturing sterile brinzolamide ophthalmic suspension” (INDOCO REMEDIES LIMITED, priority 2012, dated 2017).

Assay: Related Substance data of Brinzolamide after sterilization (Gamma irradiation vs Dry heat sterilization)
Format: physicochemical
Conditions: for Impurities: Any individual impurity / Impurities: Related Compound B / Impurities: Related Compound C / Impurities: Related Compound D: Limit NMT 0.3%; for Impurities: Total: Limit NMT 1.0%
Protocol: The active pharmaceutical ingredient according to the present invention after Dry Heat Sterilization will essentially contain the same physico-chemical properties, its chemical purity and physical form as the starting material from which it is prepared. The degradation, especially chemical degradation caused by the present sterilization process is negligible. A table of comparison for Related Substance data of Brinzolamide after sterilization by Gamma irradiation and Dry heat sterilization is presented below.

[1] = after Gamma irradiation sterilization

Impurities: Any individual impurity (after Dry Heat Sterilization): 0.09%
Impurities: Related Compound B (after Dry Heat Sterilization): 0.01%
Impurities: Related Compound C (after Dry Heat Sterilization): 0.06%
Impurities: Related Compound D (after Dry Heat Sterilization): 0.01%
Impurities: Total (after Dry Heat Sterilization): 0.43%
Impurities: Any individual impurity [1]: 0.73%
Impurities: Related Compound B [1]: 0.4%
Impurities: Related Compound C [1]: 0.06%
Impurities: Related Compound D [1]: 0.01%
Impurities: Total [1]: 1.98%
Structure (SMILES): CCN[C@H]1CN(CCCOC)S(=O)(=O)c2sc(S(N)(=O)=O)cc21 [Brinzolamide, R 4-ethylamino-3,4-dihydro-2-(3-methoxy)propyl-2H-thieno[3,2-e]-1,2-thiazin-6-sulfonamide 1,1 dioxide]
